*1 amine or outer side, *2 acyl side, *3 side chain or, on linkers, in order; H or OH if unused. Where a SMILES comes first, the peptide text is derived from it. Bridges are numbered along the chain shown (N, C = ends). Where no end group is shown, it is not given here. [ ]: non-standard residue; d: D form. The star is where a group is joined. X1 = O=C(CC1(S[*:2])CCCCC1)[*:1]; Abu = CC[C@H](N)C(=O)O; NHPr = CCCN*
How the values were obtained:
[1] = biological target: vasopressin stimulated adenylate cyclase activity; test: Assay of adenylate cyclase activity, kidney medullary membrane; format: biochemical; conditions: pig kidney medullary membrane, read-out: anti-ADH activity in vitro (Pig) Ki
Method: (§1) Details of the in vitro protocols are in F. L. Stassen et al., J. of Pharm. Exp. Ther. 233, 50-54 (1982) but the calculations of cyclase activity and binding potential at the receptor site are as follows:
Test Procedure for Assay of Adenylate Cyclase Activity:
In each experiment the amount of ^32 P/cAMP formed in the absence of medullary membrane is determined (blank). The blank value is subtracted from all experimental data. The compound is tested for its effect on basal adenylate cyclase activity and/or on vasopressin stimulated activity. Each determination is carried out in triplicate. The Ka value is derived from a Lineweaver-Burke plot. Rel. Vmax =(Vmax drug/Vmax vasopressin)×100. Ki =I/[(Ka'/Ka)-1] where I is the concentration of the antagonist, and Ka' and Ka are the concentrations of vasopressin required to give half-maximal activity of adenylate cyclase in the presence and absence of antagonist, respectively.

[2] = system: vasopressin receptors (V2 -receptors); test: Conscious hydropenic squirrel monkey test (anti-ADH activity); format: in vivo
Method: Food and water are removed from male rats approximately 18 hours prior to testing. Animals are housed 4 per metabolism cage. At 0 hour, the test compound is administered intraperitoneally to the test group and an equivalent volume of vehicle is administered to both control groups (fasted and non-fasted). Urine volume and osmolality are measured every hour for 4 hours. Test values are recorded as ml of urine excreted (cumulative), mEq/rat electrolyte excreted, mg/rat urea excreted, and osmolality in milli-Osmoles/kg H2 O. A tolerance test is used to determine significance. […] The hydropenic monkey protocol is similar.

[3] = biological target: T1, vasopressin receptors (V2 -receptors) (Rattus norvegicus, UniProt Q00788); test: Hydropenic rat protocol (anti-ADH activity in vivo); conditions: estimated dose of peptide delivered ip which reduces Uosm from hydropenic levels to 300 mOsmoles/kg H2O
T1 construct: in vivo, in the hydropenic rat or the hydropenic monkey; from tissue; host or cells: whole animal (male hydropenic rat); renal receptors in situ
T1 sequence (Q00788 whole entry): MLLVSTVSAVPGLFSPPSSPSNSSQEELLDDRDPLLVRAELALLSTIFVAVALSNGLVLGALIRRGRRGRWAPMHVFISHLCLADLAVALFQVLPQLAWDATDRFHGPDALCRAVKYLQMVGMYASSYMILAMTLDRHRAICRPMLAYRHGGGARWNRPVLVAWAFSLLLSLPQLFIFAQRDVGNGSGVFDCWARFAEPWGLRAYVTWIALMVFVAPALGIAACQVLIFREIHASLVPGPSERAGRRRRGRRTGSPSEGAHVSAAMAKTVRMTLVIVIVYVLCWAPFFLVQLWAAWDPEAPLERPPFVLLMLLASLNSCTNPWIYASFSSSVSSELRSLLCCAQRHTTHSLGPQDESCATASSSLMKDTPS
Method: as §1
Food and water are removed from male rats approximately 18 hours prior to testing. Animals are housed 4 per metabolism cage. At 0 hour, the test compound is administered intraperitoneally to the test group and an equivalent volume of vehicle is administered to both control groups (fasted and non-fasted). Urine volume and osmolality are measured every hour for 4 hours. Test values are recorded as ml of urine excreted (cumulative), mEq/rat electrolyte excreted, mg/rat urea excreted, and osmolality in milli-Osmoles/kg H2 O. A […] is used to determine significance. ED300 is defined as the dose of compound (μg/kg) required to lower urine osmolality to 300 m-Osmoles/kg. ED500 is defined as the dose of compound (μg/kg) required to lower urine osmolality to 500 m-Osmoles/kg. The hydropenic monkey protocol is similar.

[4] = biological target: T2, vasopressin receptors (^3 H-vasopressin binding) (Sus scrofa, UniProt P32307); test: Binding assay, ^3 H-vasopressin, hog kidney membranes; design: species or system Pig; conditions: for Kb: KB = IC50/(1+L/KD), ^3 H-vasopressin binding, hog kidney membranes, read-out: anti-ADH activity in vitro (Pig) KB
T2 construct: average KD value determined on 3 preparations of hog kidney membranes; from tissue; host or cells: hog kidney medullary membranes
T2 sequence (P32307 whole entry): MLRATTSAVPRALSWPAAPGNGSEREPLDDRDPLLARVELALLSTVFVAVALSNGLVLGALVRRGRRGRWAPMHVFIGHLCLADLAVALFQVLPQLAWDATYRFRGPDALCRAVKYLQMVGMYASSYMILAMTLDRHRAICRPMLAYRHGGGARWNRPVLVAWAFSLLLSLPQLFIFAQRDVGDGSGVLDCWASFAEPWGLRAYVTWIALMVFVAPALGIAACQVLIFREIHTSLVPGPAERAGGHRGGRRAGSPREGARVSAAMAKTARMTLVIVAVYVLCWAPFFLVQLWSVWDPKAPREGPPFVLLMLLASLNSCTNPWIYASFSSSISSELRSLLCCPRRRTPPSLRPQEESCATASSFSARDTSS
Method: as §1
Test Procedure for Binding Assay:
In each experiment, the amount of ^3 H-vasopressin bound in the absence and in the presence of an excess of vasopressin (7.5×10^-6 M) is measured in triplicate. These values represent total and non-specific binding, respectively. The KB of a compound is derived from the equation for competitive inhibition: KB =IC50 /(1+L/KD), where IC50 is the concentration required for 50% inhibition of specific ^3 H-vasopressin binding, L is the concentration of the ligand, and KD is the dissociation constant of ^3 H-vasopressin (KD =3.6×10^-9 M; 1 SD=0.4×10^-9 M). This is the average KD value determined on 3 preparations of hog kidney membranes.

[5] = biological target: vascular pressor sites (V1 -receptors) (Rattus norvegicus, UniProt P30560)
vascular pressor sites (V1 -receptors), sequence (P30560 whole entry): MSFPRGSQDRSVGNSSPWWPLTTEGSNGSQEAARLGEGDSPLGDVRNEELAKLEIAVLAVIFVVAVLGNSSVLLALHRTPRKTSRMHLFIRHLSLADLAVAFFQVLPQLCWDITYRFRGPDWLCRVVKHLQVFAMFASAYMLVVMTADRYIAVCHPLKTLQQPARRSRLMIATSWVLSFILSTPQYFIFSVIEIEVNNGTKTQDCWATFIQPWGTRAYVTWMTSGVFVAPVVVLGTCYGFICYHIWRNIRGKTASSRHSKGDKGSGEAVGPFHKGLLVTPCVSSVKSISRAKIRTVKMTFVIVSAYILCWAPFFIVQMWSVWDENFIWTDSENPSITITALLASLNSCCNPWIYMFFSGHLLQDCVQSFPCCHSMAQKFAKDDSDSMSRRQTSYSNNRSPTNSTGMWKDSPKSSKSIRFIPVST
Text: The second group of vasopressin receptor sites are the vascular pressor sites (V1 -receptors) located within the cardiovascular system itself.

[6] = compared with the respective parent compound; cited from earlier work
[7] = reported by Barth; cited from earlier work
[8] = reported by Barth; cited from earlier work; remark: listed apart in the source
[9] = agonist series; cited from earlier work

CCOc1ccc(C[C@H]2NC(=O)CC3(CCCCC3)SSC[C@@H](C(=O)N3CCC[C@H]3C(=O)N[C@@H](CCCNC(=N)N)C(=O)NCC(N)=O)NC(=O)[C@H](CC(N)=O)NC(=O)[C@H](C(C)C)NC(=O)[C@H](Cc3ccccc3)NC2=O)cc1 [Compound 4] ([dY](Et)FVNCPRG-NH2; linker N-5 via X1)
Ki [1]: 5.9 nM | ED300, dose required to decrease urine osmolality to 300M Osm/kg water [2]: 33.1 nmol/kg | anti-ADH activity in vivo (Rat) ED300 [3]: 0.0099 mg/kg

CCOc1ccc(C[C@H]2NC(=O)CC3(CCCCC3)SSC[C@@H](C(=O)N3CCC[C@H]3C(=O)N[C@@H](CCCNC(=N)N)C(N)=O)NC(=O)[C@H](CC(N)=O)NC(=O)[C@H](C(C)C)NC(=O)[C@H](Cc3ccccc3)NC2=O)cc1 [Compound 5, [1-(β-mercapto-β,β-cyclopentamethylenepropionicacid)-2-(O-ethyl-D-tyrosine)-4-valine-8-arginine-9-desglycine]vasopressin] ([dY](Et)FVNCPR-NH2; linker N-5 via X1)
Kb [4]: 7.8 nM | Kb [5]: 3.98 nM | pA2, inhibition of vasopressin-induced vasoconstriction ([5]; in vivo): 7.71

CCCNC(=O)[C@H](CCCNC(=N)N)NC(=O)[C@@H]1CCCN1C(=O)[C@@H]1CSSC2(CCCCC2)CC(=O)N[C@H](CC(C)C)C(=O)N[C@@H](Cc2ccccc2)C(=O)N[C@@H](C(C)C)C(=O)N[C@@H](CC(N)=O)C(=O)N1 [Example 4] ([dL]FVNCPR-NHPr; linker N-5 via X1)
inhibition at 10 µM ([4]; at 10^-5 M, read-out: Kbind, inhibition): 12.1%

CC(C)[C@@H]1NC(=O)[C@H](Cc2ccccc2)NC(=O)[C@@H](Cc2ccc(O)cc2)NC(=O)CC2(CCCCC2)SSC[C@@H](C(=O)N2CCC[C@H]2C(=O)N[C@@H](CCCNC(=N)N)C(N)=O)NC(=O)[C@H](CC(N)=O)NC1=O [Compound 2, [1-(β-mercapto-β,β-cyclopentamethylenepropionic acid)-2-D-tyrosine-4-valine-8-arginine-9-desglycine]vasopressin] ([dY]FVNCPR-NH2; linker N-5 via X1)
Kb [4]: 65 nM

CCOc1ccc(C[C@H]2NC(=O)CC3(CCCCC3)SSC[C@@H](C(=O)N3CCC[C@H]3C(=O)N[C@@H](CCCNC(=N)N)C(N)=O)NC(=O)[C@H](CC(N)=O)NC(=O)[C@H](CC)NC(=O)[C@H](Cc3ccccc3)NC2=O)cc1 [Compound 6] ([dY](Et)F[Abu]NCPR-NH2; linker N-5 via X1)
Kb [4]: 18 nM

CC(C)[C@@H]1NC(=O)[C@H](Cc2ccccc2)NC(=O)[C@@H](Cc2ccc(O)cc2)NC(=O)CC2(CCCCC2)SSC[C@@H](C(=O)N2CCC[C@H]2C(=O)N[C@@H](CCCNC(=N)N)C(=O)O)NC(=O)[C@H](CC(N)=O)NC1=O [Compound 3, [1-(β-mercapto-β,β-cyclopentamethylenepropionic acid)-2-D-tyrosine-4-valine-8-arginine-9-desglycinamide]vasopressin] ([dY]FVNCPR-OH; linker N-5 via X1)
Kb [4]: 350 nM

CC(C)[C@@H]1NC(=O)[C@H](Cc2ccccc2)NC(=O)[C@@H](Cc2ccc(O)cc2)NC(=O)CC2(CCCCC2)SSC[C@@H](C(=O)N2CCC[C@H]2C(=O)N[C@@H](CCCNC(=N)N)C(=O)NCC(N)=O)NC(=O)[C@H](CC(N)=O)NC1=O [Compound 1] ([dY]FVNCPRG-NH2; linker N-5 via X1)
Ki [1]: 30 nM | anti-ADH activity in vivo (Rat) ED300 [3]: 0.032 mg/kg

des-lysine^8 -desglycinamide^9 -vasopressin
activity of the parent compound retained [6]: little

des-glycinamide^9 -vasopressin
antidiuretic or uterotonic activity [7]: practically no | CNS activity [8]: has CNS activity | activity of the parent compound retained [6]: little

desglycine^9 -oxytocin (CYIQNCPL; disulfide 1-6 (inferred); ends not checked; UniProt P01178 20-28, looked up, variant G9*) [literature agonist analog, B. Berde et al]
activity of the parent compound retained [6]: little | effect on blood pressure compared with oxytocin [9]: opposite effect

Reference: patent publication US4587045A, “Intermediates for preparing octapeptide vasopressin antagonists” (SmithKline Beckman Corporation, priority 1985, dated 1986)
